Assay results from the supplement of paper PMC13380429.

Legend:
Details in all cases: 72 h
[1] = system: Caco-2; assay: cell viability relative to DMSO; higher = less toxic
[2] = system: Calu-3; assay: as above
[3] = system: HepG2; assay: as above
[4] = system: U2OS; assay: as above
[5] = system: Vero E6; assay: as above
[6] = system: Caco-2; assay: relative viability EC50 (midpoint between 100% and the lowest measured viability); higher = less toxic
[7] = system: Calu-3; assay: as above
[8] = system: HepG2; assay: as above
[9] = system: U2OS; assay: as above
[10] = system: Vero E6; assay: as above
[11] = system: Caco-2; assay: drug sensitivity score (DSS) for viability; higher = more toxic; extreme values may be limits of the assay
[12] = system: Calu-3; assay: as above
[13] = system: HepG2; assay: as above
[14] = system: U2OS; assay: as above
[15] = system: Vero E6; assay: as above

SMILES	cell viability ([1]; 1 nM) [%]	cell viability ([1]; 10 nM) [%]	cell viability ([1]; 100 nM) [%]	cell viability ([1]; 1000 nM) [%]	cell viability ([1]; 10000 nM) [%]	cell viability ([2]; 1 nM) [%]	cell viability ([2]; 10 nM) [%]	cell viability ([2]; 100 nM) [%]	cell viability ([2]; 1000 nM) [%]	cell viability ([2]; 10000 nM) [%]	cell viability ([3]; 1 nM) [%]	cell viability ([3]; 10 nM) [%]	cell viability ([3]; 100 nM) [%]	cell viability ([3]; 1000 nM) [%]	cell viability ([3]; 10000 nM) [%]	cell viability ([4]; 1 nM) [%]	cell viability ([4]; 10 nM) [%]	cell viability ([4]; 100 nM) [%]	cell viability ([4]; 1000 nM) [%]	cell viability ([4]; 10000 nM) [%]	cell viability ([5]; 1 nM) [%]	cell viability ([5]; 10 nM) [%]	cell viability ([5]; 100 nM) [%]	cell viability ([5]; 1000 nM) [%]	cell viability ([5]; 10000 nM) [%]	relative viability EC50 [6] [µM]	relative viability EC50 [7] [µM]	relative viability EC50 [8] [µM]	relative viability EC50 [9] [µM]	relative viability EC50 [10] [µM]	drug sensitivity score [11]	drug sensitivity score [12]	drug sensitivity score [13]	drug sensitivity score [14]	drug sensitivity score [15]
CNc1ncc2cc(-c3cc(NC(=O)NCCC(C)(C)C)c(F)cc3C)c(C)nc2n1	101	97.9	99.1	71.1	35.7	90.9	106	106	75.5	24.6	111	98.9	78.2	12.5	8.3	104	104	97.9	82.3	17.6	96.6	103	95.1	59.2	22.3	1.09	1.34	0.189	1.67	0.915	7.2	7.7	18.9	7.4	9.1
Cc1c(CN(C)C(=O)/C=C/c2cnc3c(c2)CCC(=O)N3)oc2ccccc12 [AFN-1252]	95	93.1	99	101	97.1	103	98.5	102	108	98.1	110	92.6	106	90.2	110	97.9	101	98.5	101	102	94.2	87.9	93.6	91.3	97.7	> 10	> 10	> 10	> 10	> 10	0	0	0	0	0
OCC(CO)N[C@H]1C[C@](O)(CO)[C@@H](O)[C@H](O)[C@H]1O [voglibose]	94.4	102	93.7	98	106	97.8	106	98.4	101	108	98.2	108	102	100	111	103	100	100	98.2	97.5	97	95.1	94.3	93.8	104	> 10	> 10	> 10	> 10	> 10	0	0	0	0	0
NC[C@H]1O[C@H](O[C@H]2[C@H](O)[C@@H](O[C@H]3O[C@H](CO)[C@@H](O)[C@H](N)[C@H]3O)[C@H](N)C[C@@H]2N)[C@H](O)[C@@H](O)[C@@H]1O [kanamycin]	94.3	93.1	88.1	89.3	96.1	100	104	101	114	95.2	109	88.9	88	96.5	98.5	102	102	96.1	98.3	98.2	109	106	99.3	99	102	> 10	> 10	> 10	> 10	> 10	0	0	0	0	0
COc1ccc2c(c1)CN(C)CC2c1ccc(Cl)c(Cl)c1 (stereo not given) [diclofensine]	96.6	94	86	95.6	83.5	103	106	107	101	87.9	101	98.8	95.9	103	97.2	99.3	103	93.3	100	93.2	96	99.3	94.5	95.7	91.1	> 10	> 10	> 10	> 10	> 10	0.6	0	0	0	0
Cc1ccc(S(=O)(=O)OCC(=O)Nc2ccc(C(=O)O)c(O)c2)cc1 [STAT3-inhibitor-VI]	101	93.1	90.6	90.8	99.9	102	95.1	102	96.2	101	102	104	96.2	92.1	95.6	103	96	101	104	99	98.3	97.6	94.1	98.9	89.8	> 10	> 10	> 10	> 10	> 10	0	0	0	0	0
